Laboratory results as given in patent US20260294874A1, “COMPOSITIONS COMPRISING MODULATORS OF RIBONUCLEOPROTEIN GRANULE FORMATION AND DISSOLUTION AND METHODS OF USE THEREOF” (University of Virginia Patent Foundation, priority 2023, published 2026).
Where “and” joins values, the source holds several entries; their conditions need not be identical. Identical values can stand only once. Entries after “also recorded” stand apart in the source; their conditions may differ. Like-named read-outs stand apart in the source and are kept apart here.

Legend:
[1] = target: T1, recombinant EDC3 (Homo sapiens, UniProt Q96F86); experiment: Competitive gel-based ABPP, HHS-465 probe labeling of recombinant EDC3 in HEK293T cells; assay type: cell-based; conditions: for inhibition of HHS-465 probe labeling of recombinant EDC3 (in words): 25 μM, 2 h (FIG. 4F), 0.1-100 μM for concentration dependence (FIG. 4D)
T1 construct: FLAG; expressed in transfected cells; host or cells: HEK293T
T1 sequence (Q96F86 1-508): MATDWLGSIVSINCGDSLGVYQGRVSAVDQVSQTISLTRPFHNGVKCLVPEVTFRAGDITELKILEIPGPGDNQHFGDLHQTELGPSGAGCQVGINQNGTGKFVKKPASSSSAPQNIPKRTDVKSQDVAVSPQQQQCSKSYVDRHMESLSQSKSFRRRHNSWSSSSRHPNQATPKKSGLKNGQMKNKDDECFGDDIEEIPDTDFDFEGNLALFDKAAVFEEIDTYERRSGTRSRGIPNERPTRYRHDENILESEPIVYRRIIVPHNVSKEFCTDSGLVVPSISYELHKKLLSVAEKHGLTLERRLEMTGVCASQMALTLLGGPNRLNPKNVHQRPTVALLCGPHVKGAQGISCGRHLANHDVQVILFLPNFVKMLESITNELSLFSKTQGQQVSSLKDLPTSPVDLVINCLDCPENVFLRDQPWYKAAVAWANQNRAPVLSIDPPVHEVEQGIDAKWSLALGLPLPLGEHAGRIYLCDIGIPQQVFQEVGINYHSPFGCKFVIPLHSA
Excerpt: FIGS. 4A-4F. Discovery of a SuTEx ligand for the hyper-reactive EDC3 Y475 site. (FIG. 4A) Overlap of liganded sites from SuTEx PB modulators with reported RNA granule induction-sensitive lysine and tyrosine sites (RISKYs; Ciancone et al., 2022). The five overlapping sites were further compared to previously reported hyper-RISKY sites (Ciancone et al., 2022) resulting in the identification of the tyrosine-475 (Y475) site on EDC3. (FIG. 4B) Representative immunofluorescence images depicting decreased PBs and increased SGs in AHL-030-treated cells under stress conditions. EKT235 is shown as a negative control. See FIGS. 8 and 9 for additional details. (FIG. 4C) Representative MS1 extracted ion chromatograms (EICs) showing EDC3 Y475 (i.e., amino acid 2 of the peptide sequence […]; SEQ ID NO: 1, which corresponds to amino acids 474-500 of the human enhancer of mRNA-decapping protein 3 isoform 1 polypeptide of GENBANK® Accession No. NP_001135915.1) is liganded by AHL-030 but not EKT235 [SILAC ratio or SR>2 for DMSO vehicle (light, red)/SuTEx fragment ligand (heavy, blue) treatment conditions]. Enrichment (HHS-465/DMSO) and 1:1 (HHS-465/HHS-465) controls are shown. SRs are calculated as the integrated area under the curve ratio of light-to-heavy peptide. Data are representative of n=2-3 biologically independent replicates. […] EDC3-expressing HEK293T cells were pretreated with varying concentrations of AHL-030 (0.1-100 μM, 2 hours) followed by lysis and probe labeling of soluble proteomes with HHS-465 (100 μM, 1 h, RT). The in situ IC50 for EDC3 probe labeling inhibition by AHL-030 was estimated to be ~6 μM. […] Data shown are mean±SEM and representative of n=3 biologically independent replicates. […] Western blots comparing recombinant expression of EDC3 (α-FLAG) and loading controls (α-GAPDH) are shown. Data are representative of n=2 biologically independent replicates.
Among the candidate PB-modulating SuTEx compounds, we focused on AHL-030 because of its PB-inhibitory, SG-enhancing activity in stressed cells and ability to ligand the EDC3 Y475 site (SR >2; FIGS. 4B and 4C). Importantly, we identified a restricted number of reproducibly liganded sites (7 in total) in addition to EDC3 Y475 in chemoproteomic profiling studies of AHL-030 (FIG. 12). We further confirmed AHL-030 as an EDC3 ligand using competitive activity-based protein profiling (ABPP; Grams & Hsu, 2022). Recombinant EDC3-expressing HEK293T cells were treated with a panel of RNP granule modulators including AHL-030 and the negative control compound EKT235 to evaluate structure-activity relationships (SAR, 25 μM compounds, 2 h). Cells were lysed and soluble proteomes labeled with HHS-465 (100 μM, 1 h, RT) followed by CuAAC with rhodamine-azide, SDS-PAGE and in-gel fluorescence scanning. […] Using the in vitro IC50, we calculated the lipophilic efficiency (LipE) of AHL-030 to be ~7, which falls in the range of acceptable lipophilicity in relation to potency (Leeson & Springthorpe, 2007).

[2] = Lipophilic efficiency calculation (cLogP from ChemDraw); conditions: from IC50 (AHL-030) or EC50 (HHS-166) and cLogP
Method: Lipophilic efficiency calculations for AHL-030 and HHS-166. Lipophilic efficiency was calculated as previously described in Leeson & Springthorpe, 2007 using IC50 (AHL-030) and EC50 (HHS-166) potency values from experiments and c Log P values from ChemDraw (Version 20.0.0.41 on a Windows PC): […]

Row | SMILES | inhibition of HHS-465 probe labeling of recombinant EDC3 (in words) ([1]; HHS-465 100 μM, 1 h, RT) | LipE (lipophilic efficiency) [2] | pIC50/EC50: pIC50 ([1]; AHL-030, used for LipE) | IC50 ([1]; IC50 (AHL-030), EDC3 probe labeling, read-out: IC50/EC50 (M): IC50) [M] | IC50 ([1]; in situ, 0.1-100 μM, 2 h, HHS-465 100 μM, 1 h, RT, n=3, read-out: IC50 for EDC3 probe labeling inhibition)
1 | CC(C)c1cc(C(C)C)c(S(=O)(=O)n2cc(-c3ccc(C(F)(F)F)cc3)nn2)c(C(C)C)c1 [AHL-003] | largely inactive |  |  |  | 
2 | COc1ccc(S(=O)(=O)n2cc(CS(C)(=O)=O)nn2)cc1 [AHL-030, 1-((4-Methoxyphenyl)sulfonyl)-4-((methylsulfonyl)methyl)-1H-1,2,3-triazole] | blocked HHS-465 probe labeling of EDC3 in a concentration-dependent manner; also recorded: concentration-dependent binding to recombinant EDC3; also recorded: competition of HHS-465 probe labeling | 7 | 5.3 | 5.6e-06 | 6e-06 M and ~6e-06 M
3 | N#Cc1ccc(S(=O)(=O)n2cc(-c3cccc(Cl)c3)nn2)cc1 [EKT231, 4-((4-(3-Chlorophenyl)-1H-1,2,3-triazol-1-yl)sulfonyl)benzonitrile] | largely inactive |  |  |  | 
4 | COc1ccc(S(=O)(=O)n2cc(C3CCCCC3)nn2)cc1 [HHS-166, 4-Cyclohexyl-1-((4-methoxyphenyl)sulfonyl)-111-1,2,3-triazole] |  | 3 |  |  | 
